According to article PMC6720883, “In Vitro Inhibitory Effects of APINACA on Human Major Cytochrome P450, UDP-Glucuronosyltransferase Enzymes, and Drug Transporters” (Molecules, 2019):
Where two headings read alike, the source gives them in different places.

What was measured:
[1] = molecular target: T1, UGT1A9 (Homo sapiens, UniProt O60656); settings: cited from earlier work
T1 sequence (O60656 26-530): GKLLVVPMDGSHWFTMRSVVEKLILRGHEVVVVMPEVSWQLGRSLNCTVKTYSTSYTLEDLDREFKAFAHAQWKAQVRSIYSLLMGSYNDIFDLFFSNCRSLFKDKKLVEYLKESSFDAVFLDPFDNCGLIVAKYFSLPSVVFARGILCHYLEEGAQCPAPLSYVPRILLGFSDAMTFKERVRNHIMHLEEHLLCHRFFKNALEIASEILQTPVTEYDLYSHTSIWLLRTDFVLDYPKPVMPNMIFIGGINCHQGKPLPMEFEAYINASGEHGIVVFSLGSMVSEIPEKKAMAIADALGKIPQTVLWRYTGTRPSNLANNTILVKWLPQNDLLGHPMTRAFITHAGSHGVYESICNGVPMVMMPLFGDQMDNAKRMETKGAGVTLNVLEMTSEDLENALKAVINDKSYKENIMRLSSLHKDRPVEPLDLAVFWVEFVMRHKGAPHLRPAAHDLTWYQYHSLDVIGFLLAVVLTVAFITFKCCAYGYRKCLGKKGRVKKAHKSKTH

[2] = molecular target: T2, BCRP (Homo sapiens, UniProt Q9UNQ0); experiment: B to A transport of [3-H]estrone-3-sulfate in LLC-PK1-BCRP cells; assay type: in vitro ADME; settings: human, LLC-PK1-BCRP cell monolayers on filter membranes, probe [3H]estrone-3-sulfate (0.1 μM); LLC-PK1-BCRP cells; B to A transport of 0.1 μM [3-H]estrone-3-sulfate; read-out: IC50 for inhibition of BCRP transport
T2 sequence (Q9UNQ0 1-655): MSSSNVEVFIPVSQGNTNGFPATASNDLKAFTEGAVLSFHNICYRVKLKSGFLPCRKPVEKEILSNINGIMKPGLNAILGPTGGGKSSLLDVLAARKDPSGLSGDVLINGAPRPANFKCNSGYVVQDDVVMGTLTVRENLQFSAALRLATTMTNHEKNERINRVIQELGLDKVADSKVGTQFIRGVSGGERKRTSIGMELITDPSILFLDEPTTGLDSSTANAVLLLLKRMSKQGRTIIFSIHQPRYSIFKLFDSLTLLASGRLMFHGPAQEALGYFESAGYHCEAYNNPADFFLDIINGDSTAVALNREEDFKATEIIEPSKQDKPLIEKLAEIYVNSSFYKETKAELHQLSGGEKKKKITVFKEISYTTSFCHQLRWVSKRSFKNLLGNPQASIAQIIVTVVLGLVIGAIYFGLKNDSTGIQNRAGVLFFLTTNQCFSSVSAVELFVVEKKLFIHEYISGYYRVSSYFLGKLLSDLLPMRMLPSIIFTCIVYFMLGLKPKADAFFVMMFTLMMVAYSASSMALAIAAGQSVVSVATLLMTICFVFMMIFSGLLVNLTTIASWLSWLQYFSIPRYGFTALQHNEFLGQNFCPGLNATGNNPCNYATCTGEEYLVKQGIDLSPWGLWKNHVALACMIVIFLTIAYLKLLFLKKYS

[3] = read-out: Ki for inhibition of UGT1A9 activities, recombinant and human liver microsomal UGT1A9

Compound | Ki [1, 3] [nM] | also measured
Cc1ccc([C@@H]2O[C@H](CO)[C@@H](O)[C@H](O)[C@H]2O)cc1Cc1ccc(-c2ccc(F)cc2)s1 [canagliflozin] | 1400 to 3000 | 
CCOc1ccc(Cc2cc([C@@H]3O[C@H](CO)[C@@H](O)[C@H](O)[C@H]3O)ccc2Cl)cc1 [dapagliflozin] | 11000 to 15000 | 
CNC(=O)c1cc(Oc2ccc(NC(=O)Nc3ccc(Cl)c(C(F)(F)F)c3)c(F)c2)ccn1 [regorafenib] |  | Ki [1]: 700 nM
CNC(=O)c1cc(Oc2ccc(NC(=O)Nc3ccc(Cl)c(C(F)(F)F)c3)cc2)ccn1 [sorafenib] | 700 | 
O=C(O)c1cc(/N=N/c2ccc(S(=O)(=O)Nc3ccccn3)cc2)ccc1O [sulfasalazine] |  | IC50 [2]: 390 nM
